Laboratory results reported in the CheMixHub viscosity set.
± gives the uncertainty stated by the source.

Experiment: xn = mol fraction of the nth substance listed
Conditions: 100 kPa

Question: Which viscosity (293.15 K, x2 = 0.1003) does the source give for `CCCCCCCCO` + COC(=O)OC here?
Answer: 6.22 ± 1.1 mPa·s

Question: What about the viscosity (293.15 K, x2 = 0.2001) of the same compound?
Answer: 4.4 ± 0.79 mPa·s

Question: And the viscosity (293.15 K, x2 = 0.2997)?
Answer: 3.28 ± 0.59 mPa·s

Question: What about the viscosity (293.15 K, x2 = 0.4005) of the same compound?
Answer: 2.44 ± 0.44 mPa·s

Question: And the viscosity (293.15 K, x2 = 0.5004)?
Answer: 1.83 ± 0.33 mPa·s

Question: What about the viscosity (293.15 K, x2 = 0.5996) of the same compound?
Answer: 1.39 ± 0.25 mPa·s

Question: And the viscosity (293.15 K, x2 = 0.7001)?
Answer: 1.08 ± 0.19 mPa·s

Question: And the viscosity (293.15 K, x2 = 0.8001)?
Answer: 0.85 ± 0.15 mPa·s

Question: What about the viscosity (293.15 K, x2 = 0.9005) of the same compound?
Answer: 0.66 ± 0.12 mPa·s

Question: And the viscosity (298.15 K, x2 = 0.1003)?
Answer: 5.35 ± 0.96 mPa·s

Question: What about the viscosity (298.15 K, x2 = 0.2001) of the same compound?
Answer: 3.86 ± 0.7 mPa·s

Question: And the viscosity (298.15 K, x2 = 0.2997)?
Answer: 2.87 ± 0.52 mPa·s

Question: And the viscosity (298.15 K, x2 = 0.4005)?
Answer: 2.14 ± 0.39 mPa·s

Question: What about the viscosity (298.15 K, x2 = 0.5004) of the same compound?
Answer: 1.63 ± 0.29 mPa·s

Question: What about the viscosity (298.15 K, x2 = 0.5996) of the same compound?
Answer: 1.25 ± 0.23 mPa·s

Question: And the viscosity (298.15 K, x2 = 0.7001)?
Answer: 0.98 ± 0.18 mPa·s

Question: What about the viscosity (298.15 K, x2 = 0.8001) of the same compound?
Answer: 0.78 ± 0.14 mPa·s

Question: What about the viscosity (298.15 K, x2 = 0.9005) of the same compound?
Answer: 0.61 ± 0.11 mPa·s

Question: What about the viscosity (303.15 K, x2 = 0.1) of the same compound?
Answer: 4.529 ± 0.14 mPa·s

Question: And the viscosity (303.15 K, x2 = 0.1003)?
Answer: 4.58 ± 0.82 mPa·s

Question: And the viscosity (303.15 K, x2 = 0.1999)?
Answer: 3.34 ± 0.1 mPa·s

Question: And the viscosity (303.15 K, x2 = 0.2001)?
Answer: 3.45 ± 0.62 mPa·s

Question: And the viscosity (303.15 K, x2 = 0.2997)?
Answer: 2.52 ± 0.45 mPa·s

Question: And the viscosity (303.15 K, x2 = 0.3)?
Answer: 2.516 ± 0.077 mPa·s

Question: What about the viscosity (303.15 K, x2 = 0.3999) of the same compound?
Answer: 1.931 ± 0.059 mPa·s

Question: And the viscosity (303.15 K, x2 = 0.4005)?
Answer: 1.9 ± 0.34 mPa·s

Question: What about the viscosity (303.15 K, x2 = 0.5) of the same compound?
Answer: 1.505 ± 0.046 mPa·s

Question: And the viscosity (303.15 K, x2 = 0.5004)?
Answer: 1.46 ± 0.26 mPa·s

Question: What about the viscosity (303.15 K, x2 = 0.5996) of the same compound?
Answer: 1.13 ± 0.2 mPa·s

Question: What about the viscosity (303.15 K, x2 = 0.6) of the same compound?
Answer: 1.183 ± 0.036 mPa·s

Question: And the viscosity (303.15 K, x2 = 0.7)?
Answer: 0.959 ± 0.03 mPa·s

Question: What about the viscosity (303.15 K, x2 = 0.7001) of the same compound?
Answer: 0.9 ± 0.16 mPa·s

Question: What about the viscosity (303.15 K, x2 = 0.7999) of the same compound?
Answer: 0.765 ± 0.024 mPa·s

Question: What about the viscosity (303.15 K, x2 = 0.8001) of the same compound?
Answer: 0.72 ± 0.13 mPa·s

Question: And the viscosity (303.15 K, x2 = 0.9)?
Answer: 0.633 ± 0.02 mPa·s

Question: And the viscosity (303.15 K, x2 = 0.9005)?
Answer: 0.58 ± 0.1 mPa·s

Question: And the viscosity (308.15 K, x2 = 0.1)?
Answer: 3.905 ± 0.12 mPa·s

Question: And the viscosity (308.15 K, x2 = 0.1003)?
Answer: 3.94 ± 0.71 mPa·s

Question: What about the viscosity (308.15 K, x2 = 0.1999) of the same compound?
Answer: 2.917 ± 0.089 mPa·s

Question: And the viscosity (308.15 K, x2 = 0.2001)?
Answer: 2.93 ± 0.53 mPa·s

Question: And the viscosity (308.15 K, x2 = 0.2997)?
Answer: 2.22 ± 0.4 mPa·s

Question: What about the viscosity (308.15 K, x2 = 0.3) of the same compound?
Answer: 2.22 ± 0.068 mPa·s

Question: What about the viscosity (308.15 K, x2 = 0.3999) of the same compound?
Answer: 1.73 ± 0.053 mPa·s

Question: And the viscosity (308.15 K, x2 = 0.4005)?
Answer: 1.69 ± 0.3 mPa·s

Question: What about the viscosity (308.15 K, x2 = 0.5) of the same compound?
Answer: 1.358 ± 0.042 mPa·s

Question: What about the viscosity (308.15 K, x2 = 0.5004) of the same compound?
Answer: 1.31 ± 0.24 mPa·s

Question: What about the viscosity (308.15 K, x2 = 0.5996) of the same compound?
Answer: 1.03 ± 0.19 mPa·s

Question: What about the viscosity (308.15 K, x2 = 0.6) of the same compound?
Answer: 1.079 ± 0.033 mPa·s

Question: What about the viscosity (308.15 K, x2 = 0.7) of the same compound?
Answer: 0.88 ± 0.027 mPa·s

Question: What about the viscosity (308.15 K, x2 = 0.7001) of the same compound?
Answer: 0.83 ± 0.15 mPa·s

Question: What about the viscosity (308.15 K, x2 = 0.7999) of the same compound?
Answer: 0.711 ± 0.022 mPa·s

Question: And the viscosity (308.15 K, x2 = 0.8001)?
Answer: 0.67 ± 0.12 mPa·s

Question: What about the viscosity (308.15 K, x2 = 0.9) of the same compound?
Answer: 0.591 ± 0.018 mPa·s

Question: What about the viscosity (308.15 K, x2 = 0.9005) of the same compound?
Answer: 0.54 ± 0.1 mPa·s

Question: What about the viscosity (313.15 K, x2 = 0.1) of the same compound?
Answer: 3.388 ± 0.1 mPa·s

Question: What about the viscosity (313.15 K, x2 = 0.1003) of the same compound?
Answer: 3.41 ± 0.61 mPa·s

Question: What about the viscosity (313.15 K, x2 = 0.1999) of the same compound?
Answer: 2.56 ± 0.079 mPa·s

Question: And the viscosity (313.15 K, x2 = 0.2001)?
Answer: 2.61 ± 0.47 mPa·s

Question: What about the viscosity (313.15 K, x2 = 0.2997) of the same compound?
Answer: 1.97 ± 0.35 mPa·s

Question: And the viscosity (313.15 K, x2 = 0.3)?
Answer: 1.971 ± 0.061 mPa·s

Question: And the viscosity (313.15 K, x2 = 0.3999)?
Answer: 1.547 ± 0.048 mPa·s

Question: What about the viscosity (313.15 K, x2 = 0.4005) of the same compound?
Answer: 1.5 ± 0.27 mPa·s

Question: And the viscosity (313.15 K, x2 = 0.5)?
Answer: 1.229 ± 0.038 mPa·s

Question: And the viscosity (313.15 K, x2 = 0.5004)?
Answer: 1.18 ± 0.21 mPa·s

Question: And the viscosity (313.15 K, x2 = 0.5996)?
Answer: 0.94 ± 0.17 mPa·s

Question: And the viscosity (313.15 K, x2 = 0.6)?
Answer: 0.984 ± 0.03 mPa·s

Question: What about the viscosity (313.15 K, x2 = 0.7) of the same compound?
Answer: 0.814 ± 0.025 mPa·s

Question: What about the viscosity (313.15 K, x2 = 0.7001) of the same compound?
Answer: 0.77 ± 0.14 mPa·s

Question: And the viscosity (313.15 K, x2 = 0.7999)?
Answer: 0.662 ± 0.021 mPa·s

Question: And the viscosity (313.15 K, x2 = 0.8001)?
Answer: 0.62 ± 0.11 mPa·s

Question: And the viscosity (313.15 K, x2 = 0.9)?
Answer: 0.554 ± 0.017 mPa·s

Question: And the viscosity (313.15 K, x2 = 0.9005)?
Answer: 0.51 ± 0.09 mPa·s

Question: And the viscosity (318.15 K, x2 = 0.1)?
Answer: 2.951 ± 0.09 mPa·s

Question: And the viscosity (318.15 K, x2 = 0.1003)?
Answer: 2.97 ± 0.53 mPa·s

Question: And the viscosity (318.15 K, x2 = 0.1999)?
Answer: 2.263 ± 0.069 mPa·s

Question: And the viscosity (318.15 K, x2 = 0.2001)?
Answer: 2.24 ± 0.4 mPa·s

Question: What about the viscosity (318.15 K, x2 = 0.2997) of the same compound?
Answer: 1.76 ± 0.32 mPa·s

Question: What about the viscosity (318.15 K, x2 = 0.3) of the same compound?
Answer: 1.763 ± 0.054 mPa·s

Question: What about the viscosity (318.15 K, x2 = 0.3999) of the same compound?
Answer: 1.395 ± 0.043 mPa·s

Question: And the viscosity (318.15 K, x2 = 0.4005)?
Answer: 1.35 ± 0.24 mPa·s

Question: And the viscosity (318.15 K, x2 = 0.5)?
Answer: 1.119 ± 0.034 mPa·s

Question: And the viscosity (318.15 K, x2 = 0.5004)?
Answer: 1.08 ± 0.19 mPa·s

Question: And the viscosity (318.15 K, x2 = 0.5996)?
Answer: 0.86 ± 0.16 mPa·s

Question: What about the viscosity (318.15 K, x2 = 0.6) of the same compound?
Answer: 0.903 ± 0.028 mPa·s

Question: What about the viscosity (318.15 K, x2 = 0.7) of the same compound?
Answer: 0.754 ± 0.023 mPa·s

Question: What about the viscosity (318.15 K, x2 = 0.7001) of the same compound?
Answer: 0.71 ± 0.13 mPa·s

Question: What about the viscosity (318.15 K, x2 = 0.7999) of the same compound?
Answer: 0.617 ± 0.019 mPa·s

Question: And the viscosity (318.15 K, x2 = 0.8001)?
Answer: 0.58 ± 0.1 mPa·s

Question: And the viscosity (318.15 K, x2 = 0.9)?
Answer: 0.523 ± 0.016 mPa·s

Question: What about the viscosity (318.15 K, x2 = 0.9005) of the same compound?
Answer: 0.48 ± 0.09 mPa·s

Question: What about the viscosity (323.15 K, x2 = 0.1) of the same compound?
Answer: 2.59 ± 0.079 mPa·s

Question: What about the viscosity (323.15 K, x2 = 0.1003) of the same compound?
Answer: 2.61 ± 0.47 mPa·s

Question: And the viscosity (323.15 K, x2 = 0.2001)?
Answer: 1.99 ± 0.36 mPa·s

Question: And the viscosity (323.15 K, x2 = 0.2997)?
Answer: 1.58 ± 0.28 mPa·s

Question: And the viscosity (323.15 K, x2 = 0.4005)?
Answer: 1.22 ± 0.22 mPa·s

Question: What about the viscosity (323.15 K, x2 = 0.5004) of the same compound?
Answer: 0.98 ± 0.18 mPa·s

Question: And the viscosity (323.15 K, x2 = 0.5996)?
Answer: 0.8 ± 0.14 mPa·s

Question: And the viscosity (323.15 K, x2 = 0.7001)?
Answer: 0.66 ± 0.12 mPa·s

Question: What about the viscosity (323.15 K, x2 = 0.8001) of the same compound?
Answer: 0.54 ± 0.1 mPa·s

Question: And the viscosity (323.15 K, x2 = 0.9005)?
Answer: 0.45 ± 0.08 mPa·s
